The assay relates to tHTT (total HTT protein). The assay is described as follows: Time-resolved FRET assay, total huntingtin (tHTT) detection in cell lysates. It is filed as cell-based, human. Conditions: read-out: tHTT EC50. An outline of the steps: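 TR-FRET readout on cell lysates, with the donor/acceptor ratio reflecting relative total HTT.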
The mark [1] stands for this setting: GEN020 hESCs (mutant 48 Q repeat allele), compounds added for 48 hours, TR-FRET on lysate.

Drawing on patent US11806346B2, “HTT modulators for treating Huntington's disease” (CHDI Foundation, Inc., priority 2020, dated 2023), this text covers EC50 for 35 compounds.

Like-named read-outs stand apart in the source and are kept apart here.

For orientation: EC50 means the concentration at which the effect is half-maximal.

As for `Cc1cn2cc(NC(=O)c3cnc(N4CCNCC4)cn3)cc(F)c2n1` [drawing 1144], where the note is “Example (compounds of the instant disclosure), GEN020 hESCs, 48 hours”, the EC50 amounted to 3100 nM.

In the case of `Cc1cn2cc(NC(=O)c3cnc(N4CC[C@@H](CNC5CC5)C4)cn3)cc(Cl)c2n1` [Example 311], the EC50 under setting [1] is 100 to 500 nM.

As for `Cc1cn2cc(NC(=O)c3cnc(N4CC(C5CCCCN5)C4)cn3)cc(F)c2n1` (single isomer, unassigned) [Example 229], the EC50 under setting [1] lay in the range of 100 to 500 nM.

Consider `Cc1cn2cc(NC(=O)c3cnc(N4CCC(CNC5CC5)C4=O)cn3)cc(F)c2n1` (centres unmarked) [Example 316, 5-(3-((cyclopropylamino)methyl)-2-oxopyrrolidin-1-yl)-N-(8-fluoro-2-methylimidazo[1,2-a]pyridin-6-yl)pyrazine-2-carboxamide], for which, under setting [1], the EC50 lay within 100 to 500 nM.

Regarding `Cc1cn2cc(NC(=O)c3cnc(N4CCC(CN(C)C(C)C)C4)cn3)cc(F)c2n1` (single isomer, unassigned) [Example 167], under setting [1], the EC50 was in the range of 100 to 500 nM.

Consider `CN[C@@H]1CCN(c2cnc(C(=O)Nc3cn4cc(C)nc4cc3OC)cn2)C1` [Example 183, (R)—N-(7-methoxy-2-methylimidazo[1,2-a]pyridin-6-yl)-5-(3-(methylamino)pyrrolidin-1-yl)pyrazine-2-carboxamide], for which the 50% effective concentration (EC50) under setting [1] lay in the range of 100 to 500 nM.

With `CCN[C@@H]1CCN(c2cnc(C(=O)Nc3cc4cn(C)nc4cc3OC)cn2)C1` [Example 110, (R)-5-(3-(ethylamino)pyrrolidin-1-yl)-N-(6-methoxy-2-methyl-2H-indazol-5-yl)pyrazine-2-carboxamide], the 50% effective concentration (EC50) under setting [1] is less than 100 nM.

Turning to `Cc1cn2cc(NC(=O)c3cnc(N4CC(CN(C)C5CC5)C4)cn3)cc(F)c2n1` [Example 202], the EC50 under setting [1] lay within 100 to 500 nM.

Take `COc1nc(NC(=O)c2cnc(N3CC[C@@H](NCC4CC4)C3)cn2)cn2cc(C)nc12` [Example 267]: under setting [1], the concentration giving a half-maximal response (EC50) is 100 to 500 nM.

For `Cc1cn2cc(NC(=O)c3cnc(N4CC5CN(C6CC6)CC5C4)cn3)cc(F)c2n1` (centres unmarked) [Example 174, 5-(5-cyclopropylhexahydropyrrolo[3,4-c]pyrrol-2(1H)-yl)-N-(8-fluoro-2-methylimidazo[1,2-a]pyridin-6-yl)pyrazine-2-carboxamide], the EC50 under setting [1] lay within 100 to 500 nM.

Regarding `CC[C@@H]1CN(c2cnc(C(=O)Nc3cc(F)c4nc(C)cn4c3)cn2)CCN1` [Example 79], under setting [1], the EC50 was in the range of 1000 to 10000 nM.

Take `Cc1cn2cc(NC(=O)c3cnc(N4CC[C@@H](NC5CC5)C4)cn3)cc(Cl)c2n1` [Example 341]: the concentration for a half-maximal effect (EC50) under setting [1] was less than 100 nM.

`Cc1cn2cc(NC(=O)c3cnc(N(C)[C@@H]4CCNC4)cn3)cc(F)c2n1` [Example 3]: under setting [1], the concentration giving a half-maximal response (EC50) lay within 500 to 1000 nM.

On to `COc1nc(NC(=O)c2cnc(N3CC[C@H](NCC4CC4)C3)cn2)cn2cc(C)nc12` [Example 269], for which, under setting [1], the half-maximal effective concentration (EC50) is 100 to 500 nM.

`CCOc1cc2nn(C)cc2cc1NC(=O)c1cnc(N2CC[C@H](N3CCCC3)C2)cn1` [Example 93, (S)-5-([1,3′-bipyrrolidin]-1′-yl)-N-(6-ethoxy-2-methyl-2H-indazol-5-yl)pyrazine-2-carboxamide]: under setting [1], the EC50 was 100 to 500 nM.

`COc1nc(NC(=O)c2cnc(N3CC(CNC4CC4)C3)cn2)cn2cc(C)nc12` [Example 210]: the 50% effective concentration (EC50) under setting [1] is less than 100 nM.

As for `Cc1cn2cc(NC(=O)c3cnc(N4CC5CCN(C)C5C4)cn3)cc(F)c2n1` (centres unmarked) [Example 32], the EC50 under setting [1] was in the range of 1000 to 10000 nM.

In the case of `Cc1cn2cc(NC(=O)c3cnc(N4CC5(CNC5)C4)cn3)nc(C)c2n1` [Example 58], under setting [1], the concentration giving a half-maximal response (EC50) was 100 to 500 nM.

On to `Cc1cn2cc(NC(=O)c3cnc(N4CC(C5COCCN5)C4)cn3)cc(F)c2n1` (single isomer, unassigned) [Example 347], for which the EC50 under setting [1] fell in the range of 100 to 500 nM.

As to `Cc1cn2cc(NC(=O)c3cnc(N4C[C@H]5CN(C)C[C@H]5C4=O)cn3)cc(F)c2n1` [Example 317, N-(8-fluoro-2-methylimidazo[1,2-a]pyridin-6-yl)-5-((3aR,6aS)-5-methyl-1-oxohexahydropyrrolo[3,4-c]pyrrol-2(1H)-yl)pyrazine-2-carboxamide], under setting [1], the EC50 was 100 to 500 nM.

As to `Cc1cn2cc(NC(=O)c3cnc(N(C)C4CC(C)(C)NC(C)(C)C4)cn3)cc(F)c2n1` [Example 353, N-(8-fluoro-2-methylimidazo[1,2-a]pyridin-6-yl)-5-(methyl(2,2,6,6-tetramethylpiperidin-4-yl)amino)pyrazine-2-carboxamide], the half-maximal effective concentration (EC50) under setting [1] was 100 to 500 nM.

`COc1cc2nn(C)cc2cc1NC(=O)c1cnc(N2CC(CN3CC[C@@H](F)C3)C2)cn1` [Example 304, (R)-5-(3-((3-fluoropyrrolidin-1-yl)methyl)azetidin-1-yl)-N-(6-methoxy-2-methyl-2H-indazol-5-yl)pyrazine-2-carboxamide]: the EC50 under setting [1] lay in the range of 100 to 500 nM.

For `Cc1cn2cc(NC(=O)c3cnc(N4CC(N)C(F)C4)cn3)nc(C)c2n1` (centres unmarked) [Example 72], the EC50 under setting [1] was 1000 to 10000 nM.

Turning to `Cc1cn2cc(NC(=O)c3cnc(N4C[C@H](C)NC[C@H]4C)nc3)cc(F)c2n1` [Example 133], the 50% effective concentration (EC50) under setting [1] fell in the range of 1000 to 10000 nM.

As to `CCOc1cc2nn(C)cc2cc1NC(=O)c1cnc(N2CC[C@@H](NC)C2)cn1` [Example 108, (R)—N-(6-ethoxy-2-methyl-2H-indazol-5-yl)-5-(3-(methylamino)pyrrolidin-1-yl)pyrazine-2-carboxamide], the concentration for a half-maximal effect (EC50) under setting [1] lay in the range of 100 to 500 nM.

Regarding `COc1nc(NC(=O)c2cnc(N3CC(CN4CC(OC)C4)C3)cn2)cn2cc(C)nc12` [Example 359, 5-[3-[(3-Methoxyazetidin-1-yl)methyl]azetidin-1-yl]-N-(8-methoxy-2-methyl-imidazo[1,2-a]pyrazin-6-yl)pyrazine-2-carboxamide], the EC50 under setting [1] fell in the range of 100 to 500 nM.

With `Cc1cn2cc(NC(=O)c3cnc(N4CCC5(CN(C)C5)C4)cn3)cc(F)c2n1` [Example 18], the 50% effective concentration (EC50) under setting [1] lay in the range of 100 to 500 nM.

In the case of `Cc1cn2cc(NC(=O)c3cnc(N4CC(C5CCCCN5C5CC5)C4)cn3)cc(F)c2n1` (single isomer, unassigned) [Example 228], the EC50 under setting [1] was 100 to 500 nM.

Turning to `CNC1(C2CN(c3cnc(C(=O)Nc4cc(F)c5nc(C)cn5c4)cn3)C2)CC1` [Example 208, N-(8-fluoro-2-methylimidazo[1,2-a]pyridin-6-yl)-5-(3-(1-(methylamino)cyclopropyl)azetidin-1-yl)pyrazine-2-carboxamide], the 50% effective concentration (EC50) under setting [1] lay in the range of 100 to 500 nM.

On to `Cc1cn2cc(NC(=O)c3cnc(N4CC[C@H](N(C)C5CC5)C4)cn3)cc(F)c2n1` [Example 188], for which the concentration for a half-maximal effect (EC50) under setting [1] fell in the range of 500 to 1000 nM.

On to `Cc1cn2cc(NC(=O)c3cnc(N4CCC(NC5COC5)C4)cn3)cc(F)c2n1` (centres unmarked) [Example 23], for which, under setting [1], the EC50 lay in the range of 1000 to 10000 nM.

For the compound `Cc1cn2cc(NC(=O)c3cnc(N4CCN[C@H](C)C4)cn3)cc(F)c2n1` [Example 78], the 50% effective concentration (EC50) under setting [1] was in the range of 1000 to 10000 nM.

Take `Cc1nc2c(F)cc(NC(=O)c3cnc(N4CC(CNC5CC5)C4)cn3)cc2o1` [Example 261]: the EC50 under setting [1] fell in the range of 100 to 500 nM.

Turning to `Cc1cn2cc(NC(=O)c3cnc(N4CCC(CN5CCCC5)C4)cn3)nc(C)c2n1` (single isomer, unassigned) [Example 52, N-(2,8-dimethylimidazo[1,2-a]pyrazin-6-yl)-5-(3-(pyrrolidin-1-ylmethyl)pyrrolidin-1-yl)pyrazine-2-carboxamide], the 50% effective concentration (EC50) under setting [1] lay in the range of 500 to 1000 nM.

Consider `COc1c(NC(=O)c2cnc(N3CC[C@H](CNC4CC4)C3)cn2)cc2cn(C)nc2c1F` [Example 258, (R)-5-(3-((cyclopropylamino)methyl)pyrrolidin-1-yl)-N-(7-fluoro-6-methoxy-2-methyl-2H-indazol-5-yl)pyrazine-2-carboxamide], for which, under setting [1], the half-maximal effective concentration (EC50) was 100 to 500 nM.
